≈ marks a conversion by molar mass, not a printed value. Entries after “also recorded” stand apart in the source; their conditions may differ. Where two headings read alike, the source gives them in different places.
Assays:
[1] = test system: clinical samples of KP (VA_1 and VA_2); assay: MorphoAST MIC prediction with Random Forest regressor (concentration differential) from single cell imaging; format: cell-based, Klebsiella pneumoniae; settings: for MIC: Klebsiella pneumoniae
Procedure: (§1) We developed a non-limiting example machine learning workflow for rapid AST in a sub-doubling time of the bacteria. The MorphoAST workflow started with imaging of individual bacteria under various antimicrobial concentrations (FIG. 1A). Cells were grown to log phase and treated with varying concentrations of meropenem. Cells without any antimicrobials were imaged in the same manner as controls for the experiment. Live bacteria were mounted on an agarose pad to minimize cell movement due to cell motility and Brownian motion. Time-lapse images were taken every 5 minutes. Images were aligned to match the location of individual cells at each frame and then subject to MicrobeJ analysis for extracting morphological features. A total of 21 parameters (Table 2) describing the cellular dimension and orientation were generated. The data were analyzed either fitting with an exponential function to extract the feature changing rates (FIG. 1B) or normalized against the untreated control to extract the feature differentials (FIG. 1C). The data were applied to train and validate machine learning classifiers to predict the antimicrobial response (FIG. 1D) and regressors to predict the MIC of the bacterial strain against the antimicrobial (FIG. 1E).
We further evaluated the use of the concentration differential data for MIC prediction. A Random Forest regressor was trained from a total of 39,135 cells across the concentrations. […] The Random Forest regressor predicted the MIC in the 5-fold cross-validated training dataset with an RMSE of 0.8, MAE of 0.2, and an R^2 of 0.93. The performance of the model was assessed against 5 unseen KP strains, which comprised 6,067 cells. The experimental MIC and predicted MIC of the 5 unseen strains based on the Random Forest regressor are compared in FIG. 9B. […] The predicted and experimentally reported MIC labels were also compared. Based on the predicted MIC for each strain, the model correctly predicted 100% (2/2) of the susceptible and intermediate (1/1) bacteria in as few as 30 minutes. The performance of the model increased with the antimicrobial exposure time and achieved 100% CA with 0% ME and 0% VME in 50 minutes. We then tested the model performance in predicting the MIC for individual cells within each population of the unseen strains tested (FIG. 9C). While there is heterogeneity in calls for individual cells from a single population, ˜79.9% of cells from 3/5 strains tested (KP 003, KP_139, and KP_U3) had predicted MICs within one-two fold dilution from the experimental MIC after 20 minutes of antimicrobial exposure. After 50 minutes of exposure, ˜85.1% of all cells from 5/5 tested strains had predicted MICs within one-two fold dilution from experimental MIC.
(§2) In addition to validation against unseen strains, the model was tested against imaging data from two clinical samples of KP obtained from patients visiting the VA (Palo Alto) with urinary tract infections (FIG. 9D-E). The experimental MICs for these clinical samples (VA_1 and VA_2) was 0.5 μg/mL, i.e., susceptible. […] When the incubation time was increased to 50 minutes, both strains were predicted to have a mode MIC of 1 μg/mL which accurately classifies both clinical isolates as susceptible with an MIC within one-two fold dilution from the experimental MIC resulting.

[2] = test system: Klebsiella pneumoniae; assay: Time-lapse single cell imaging of K. pneumoniae treated with meropenem (cell division, morphology); format: cell-based; settings: for bulging or protrusion around the center of the cell: 5 μg/mL meropenem, early time points
Procedure: Klebsiella pneumoniae isolates (listed in Table 1 below) from the CDC & FDA Antimicrobial Resistance (AR) bank and American Type Culture Collective (ATCC) were grown in Mueller Hinton Broth (MHB) at 37° C. overnight. The next day, cells were sub-cultured in fresh MHB media for three hours (growth phase) to a density equivalent to OD600=0.5. Bacteria cells (10 μL) were treated with 10 μL meropenem at varying final concentrations of 0, 0.05, 0.5, 5, and 50 μg/mL to ascertain the physiological responses of cells. A subset of these isolates was treated with finer range of antimicrobial concentrations (0.02, 0.04, 0.016, 0.032, 0.064, 0.125, 0.5, 1, 2 μg/mL) to train the algorithm for quantitative prediction of MIC. The MICs of the isolates were obtained from the CDC and independently confirmed using the broth microdilution method according to the CDC guideline.
Bacteria cells and meropenem in liquid media are briefly vortexed prior to mounting on 1% (v/v) UltraPure agarose pad (10×20 mm, Invitrogen) on a microslide covered with a glass coverslip (#1.5, 22×30 mm). Bacteria imaging was performed using a Nikon Ti2-E inverted microscope equipped with a DS-Qi2 CMOS camera and an Okolab stage-top temperature control chamber (37° C., 5% CO2). Images were acquired using a Nikon CFI Plan Apochromat 1 DM 100× oil objective lens and an external Phase Contrast (Ph3) module. Each isolate was observed over a period of 75 minutes (15-90 minutes after mixing with the antimicrobial).
Time-series images were stacked and corrected for shifts in the time series using the Template Matching and Slice Alignment ImageJ plugin. Each individual stack was then analyzed using the MicrobeJ plugin for ImageJ. The plugin, designed for the detection and analysis of bacterial cells, uses computer vision algorithms to automatically identify a cell and determine a suite of morphological features, such as its area, length, circularity, and perimeter (see Table 2 below). The tracking data were summarized as a table and exported as a comma-separated values (.csv) file for further analysis.
as §1

[3] = test system: clinical samples of KP (VA_1 and VA_2); assay: Experimental MIC of clinical samples of KP from patients with urinary tract infections; format: cell-based, Klebsiella pneumoniae
Procedure: as §2

[4] = test system: Klebsiella pneumoniae isolates; settings: cited from earlier work

C[C@@H](O)[C@H]1C(=O)N2C(C(=O)O)=C(S[C@@H]3CN[C@H](C(=O)N(C)C)C3)[C@H](C)[C@H]12 [Meropenem, meropenem]
MIC ([1]; 20 min, clinical sample VA_1, within 20 minutes of meropenem treatment, read-out: predicted MIC): 8 µg/mL (≈ 20.9 µM) | MIC ([1]; 20 min, clinical sample VA_2, within 20 minutes of meropenem treatment, read-out: predicted MIC): 7 µg/mL (≈ 18.3 µM) | MIC ([1]; 50 min, clinical sample VA_1, 50 minutes incubation, read-out: predicted mode MIC): 1 µg/mL (≈ 2.61 µM) | MIC ([1]; 50 min, clinical sample VA_2, 50 minutes incubation, read-out: predicted mode MIC): 1 µg/mL (≈ 2.61 µM) | predicted susceptibility category ([1]; clinical sample VA_1, 50 minutes incubation): susceptible | predicted susceptibility category ([1]; clinical sample VA_1, within 20 minutes of meropenem treatment): resistant | predicted susceptibility category ([1]; clinical sample VA_2, 50 minutes incubation): susceptible | predicted susceptibility category ([1]; clinical sample VA_2, within 20 minutes of meropenem treatment): resistant | Bulging of the cells ([2]; K. pneumoniae KP0142, 50 μg/ml meropenem versus 0 μg/ml): observed only in the meropenem case; also recorded: only observed in the meropenem case | cell division ([2]; K. pneumoniae KP0142, 50 μg/ml meropenem, time-lapse imaging): completely inhibited | bulging or protrusion around the center of the cell ([2]; KP0016 (susceptible)): noticeable ‘bulging’ or protrusion around the center of the cell | bulging or protrusion around the center of the cell ([2]; KP0142 (intermediate)): noticeable ‘bulging’ or protrusion around the center of the cell | bulging or protrusion around the center of the cell ([2]; KP0143 (resistant)): not observed | MIC ([3]; Klebsiella pneumoniae, clinical sample VA_1): 0.5 µg/mL | susceptibility category from experimental MIC ([3]; clinical sample VA_1): susceptible | experimental MIC ([3]; clinical sample VA_2): 0.5 µg/mL | susceptibility category from experimental MIC ([3]; clinical sample VA_2): susceptible | MIC of the strain ([4]; K. pneumoniae KP0142): 2 µg/mL | Meropenem MIC ([4]; KP strain AR Bank# 0010): 1 µg/mL | Meropenem MIC ([4]; KP strain AR Bank# 0016): < 0.5 µg/mL | Meropenem Susc. ([4]; KP strain AR Bank# 0016): Susceptible | Meropenem MIC ([4]; KP strain AR Bank# 0028): < 0.5 µg/mL | Meropenem MIC ([4]; KP strain AR Bank# 0120): > 8 µg/mL | Meropenem MIC ([4]; KP strain AR Bank# 0140): 2 µg/mL | Meropenem MIC ([4]; KP strain AR Bank# 0142): 2 µg/mL | Meropenem Susc. ([4]; KP strain AR Bank# 0142): Intermediate | Meropenem MIC ([4]; KP strain AR Bank# 0143): > 8 µg/mL | Meropenem Susc. ([4]; KP strain AR Bank# 0143): Resistant | Meropenem MIC ([4]; KP strain AR Bank# 0147): 0.5 µg/mL | Meropenem MIC ([4]; KP strain AR Bank# 0153): > 8 µg/mL | Meropenem MIC ([4]; KP strain AR Bank# 0160): > 8 µg/mL | Meropenem MIC ([4]; KP strain ATCC 700603): ≤ 0.25 µg/mL | Meropenem MIC ([4]; KP strain ATCC BAA-1705): > 8 µg/mL
